Data from US9695155B2, “Herbicidal substituted pyrimidinyloxy benzene compounds” (E. I. DU PONT DE NEMOURS AND COMPANY, priority 2013, dated 2017).

How the values were obtained:
pigweed = experiment: Test A postemergence; type: in vivo, Amaranthus retroflexus; settings: 0 to 100 scale where 0 is no effect and 100 is complete control; for Plant response rating, Pigweed: 500 g ai/ha; for Pigweed plant response rating: 125 g ai/ha
Method in brief: (§1)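 Pre- and postemergence greenhouse screen. Soil: loam + sand. Spray carrier: solvent mixture, non-phytotoxic, with surfactant. Post timing at 1–2 leaves, height 2–10 cm. Readout: visual injury on a 0–100 scale roughly 10 days after application, untreated plants as reference.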

oilseed rape = experiment: Test C preemergence; type: in vivo, Brassica napus; settings: for Oilseed Rape plant response rating: preemergence; for Plant response rating, Oilseed Rape: Preemergence, scale 0 to 100, 0 no effect, 100 complete control
Method in brief: (§2)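 Plants were kept under greenhouse conditions for 13–15 days following spray. Pre-emergent application went to soil (loam–sand), post-emergent to foliage at 1–4 leaves. Evaluation: visual, percent control against untreated checks.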

Heteranthera limosa = experiment: Test B flooded paddy test; type: in vivo; settings: Flood, 250 g ai/ha; 0 to 100 scale where 0 is no effect and 100 is complete control
Method in brief: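 Evaluation is visual, against untreated controls, 13 to 15 days after treatment. Before treatment, plants reached the 2-leaf stage; pots were then flooded 3 cm deep, compound was added to the water, and that level was maintained. Ratings run 0 to 100, with 100 meaning complete control.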

Italian ryegrass = experiment: Test C preemergence; type: in vivo, Lolium multiflorum; settings: for Ryegrass, Italian plant response rating: preemergence; for Plant response rating, Ryegrass, Italian: Preemergence, scale 0 to 100, 0 no effect, 100 complete control
Method in brief: as §2

large (Lg) crabgrass = experiment: Test A preemergence; type: in vivo, Digitaria sanguinalis; settings: for Crabgrass, Large plant response rating: 500 g ai/ha
Method in brief: as §1

morningglory = experiment: Test C preemergence; type: in vivo, Ipomoea coccinea; settings: for Morningglory plant response rating: preemergence; for Plant response rating, Morningglory: Preemergence, scale 0 to 100, 0 no effect, 100 complete control
Method in brief: as §2

galium = experiment: Test C preemergence; type: in vivo, Galium aparine; settings: for Galium plant response rating: preemergence; for Plant response rating, Galium: Preemergence, scale 0 to 100, 0 no effect, 100 complete control
Method in brief: as §2

giant foxtail = experiment: Test A preemergence; type: in vivo, Setaria faberii; settings: for Foxtail, Giant plant response rating: 500 g ai/ha
Method in brief: as §1

velvetleaf [1] = experiment: Test A preemergence; type: in vivo, Abutilon theophrasti; settings: for Velvetleaf plant response rating: 500 g ai/ha
Method in brief: as §1

velvetleaf [2] = experiment: Test C preemergence; type: in vivo, Abutilon theophrasti; settings: for Velvetleaf plant response rating: preemergence; for Plant response rating, Velvetleaf: Preemergence, scale 0 to 100, 0 no effect, 100 complete control
Method in brief: as §2

johnsongrass = experiment: Test C preemergence; type: in vivo, Sorghum halepense; settings: for Johnsongrass plant response rating: preemergence; for Plant response rating, Johnsongrass: Preemergence, scale 0 to 100, 0 no effect, 100 complete control
Method in brief: as §2

[3] = 16 g ai/ha, scale 0 to 100 (0 no effect, 100 complete control)
[4] = 62 g ai/ha, scale 0 (no effect) to 100 (complete control)
[5] = 125 g ai/ha, scale 0 (no effect) to 100 (complete control)
[6] = 125 g ai/ha, 0 to 100 scale where 0 is no effect and 100 is complete control
[7] = 0 to 100 scale, 0 no effect, 100 complete control, approx. 10 days
[8] = 0 to 100 scale where 0 is no effect and 100 is complete control

Row | SMILES | Plant response rating, Pigweed (pigweed) | Oilseed Rape plant response rating (oilseed rape; [3]) | Oilseed Rape plant response rating (oilseed rape; [4]) | Oilseed Rape plant response rating (oilseed rape; [5]) | Plant response rating, Ducksalad (Heteranthera limosa) | Ryegrass, Italian plant response rating (Italian ryegrass; [3]) | Ryegrass, Italian plant response rating (Italian ryegrass; [4]) | Ryegrass, Italian plant response rating (Italian ryegrass; [5]) | Plant response rating, Crabgrass, Large (large (Lg) crabgrass; [6]) | Morningglory plant response rating (morningglory; [3]) | Morningglory plant response rating (morningglory; [4]) | Morningglory plant response rating (morningglory; [5]) | Galium plant response rating (galium; [3]) | Galium plant response rating (galium; [4]) | Galium plant response rating (galium; [5]) | Plant response rating, Galium (galium; 31 g ai/ha) | Velvetleaf plant response rating (velvetleaf [2]; [3]) | Velvetleaf plant response rating (velvetleaf [2]; [5]) | Johnsongrass plant response rating (johnsongrass; [3]) | Johnsongrass plant response rating (johnsongrass; [5]) | also measured
1 | Fc1cnc(Oc2cccc(C(F)F)c2-n2cc(Br)cn2)nc1 [Compound 112] | 100 | 65 | 95 | 100 | 90 | 0 | 5 | 30 | 100 | 5 | 65 | 75 | 55 | 100 | 95 | 98 | 65 | 100 | 0 | 40 | Plant response rating, Oilseed Rape (oilseed rape; 31 g ai/ha): 90; Plant response rating, Ryegrass, Italian (Italian ryegrass; 31 g ai/ha): 0; Crabgrass, Large plant response rating (large (Lg) crabgrass; [7]): 100; Plant response rating, Morningglory (morningglory; 31 g ai/ha): 15; Plant response rating, Foxtail, Giant (giant foxtail; [6]): 100; Foxtail, Giant plant response rating (giant foxtail; [7]): 100; Plant response rating, Velvetleaf (velvetleaf [1]; [6]): 90; Velvetleaf plant response rating (velvetleaf [2]; [4]): 100; Plant response rating, Velvetleaf (velvetleaf [2]; 31 g ai/ha): 70; Johnsongrass plant response rating (johnsongrass; [4]): 20; Plant response rating, Johnsongrass (johnsongrass; 31 g ai/ha): 5
2 | Fc1cccc(Oc2ncc(Cl)cn2)c1-n1cc(I)cn1 [Compound 179] | 100 | 60 | 98 | 100 | 80 | 0 | 30 | 70 | 100 | 10 | 35 | 90 | 90 | 98 | 100 | 95 | 60 | 100 | 0 | 98 | Pigweed plant response rating (pigweed): 100; Crabgrass, Large plant response rating (large (Lg) crabgrass; [8]): 100; Plant response rating, Foxtail, Giant (giant foxtail; [6]): 100; Foxtail, Giant plant response rating (giant foxtail; [8]): 100; Velvetleaf plant response rating (0 to 100 scale) (velvetleaf [1]; 125 g ai/ha): 60; Velvetleaf plant response rating (velvetleaf [1]; [8]): 80; Velvetleaf plant response rating (velvetleaf [2]; [4]): 98; Johnsongrass plant response rating (johnsongrass; [4]): 65
3 | CCOc1cnn(-c2ccccc2Oc2ncc(Cl)cn2)c1 [Compound 187] | 100 | 70 |  | 90 | 65 | 0 |  | 5 |  | 0 |  | 5 | 30 |  | 98 |  | 25 | 100 | 0 | 45 | Pigweed plant response rating (pigweed): 70; Plant response rating, Oilseed Rape (oilseed rape; 62 g ai/ha): 90; Plant response rating, Ryegrass, Italian (Italian ryegrass; 62 g ai/ha): 0; Crabgrass, Large plant response rating (0 to 100 scale) (large (Lg) crabgrass; 125 g ai/ha): 100; Crabgrass, Large plant response rating (large (Lg) crabgrass; [8]): 100; Plant response rating, Morningglory (morningglory; 62 g ai/ha): 0; Plant response rating, Galium (galium; 62 g ai/ha): 90; Foxtail, Giant plant response rating (0 to 100 scale) (giant foxtail; 125 g ai/ha): 100; Foxtail, Giant plant response rating (giant foxtail; [8]): 100; Velvetleaf plant response rating (0 to 100 scale) (velvetleaf [1]; 125 g ai/ha): 80; Velvetleaf plant response rating (velvetleaf [1]; [8]): 100; Plant response rating, Velvetleaf (velvetleaf [2]; 62 g ai/ha): 95; Plant response rating, Johnsongrass (johnsongrass; 62 g ai/ha): 30
